Laboratory results published in patent US20240165165A1, “PHARMACEUTICAL COMPOSITIONS AND THEIR METHODS OF USE” (The Trustees of Indiana University, priority 2021, published 2024).

Assays:
[1] = system: EO771 mammary tumor cells in the lung of C57BL/6 mice; assay: In vivo extravasation assay; parameters: species or system mouse; settings: co-injection into tail vein, 48 h
Procedure: To evaluate the effects of CMs for tumor invasion, the in vivo extravasation assay was conducted. C57BL/6 female mice (5 mice per group) received an injection of 50 μl of fluorescently labeled EO771 cells (1.0×10^6 cells) into the lateral tail veins. Fluorescently labeled EO771 cells were prepared by culturing them with a green fluorescent dye (#4705, Sartorius, Gottingen, Germany) for 20 min at 37° C. Cells were then centrifuged with 1000 rpm for 5 min for harvesting the pellet. The pellet was re-suspended in PBS (placebo group) or osteocyte-derived CM (A5 CM group). Mice will be sacrificed after 48 h for histologically identifying extravascular tumor cells in the lung.

[2] = system: human breast cancer fragments in the inside of the skull; assay: Skull diffusion assay, tissue fragments; assay type: cell-based; settings: agent in the outside of the skull
Procedure: (§1) Skull diffusion assay. The usage of human breast cancer tissues was approved by the Indiana University Institutional Review Board, and informed consent for research use was obtained from all patients. The experiment was performed following Indiana University's human research protection program policies. A breast cancer tissue (— 1 g; ER/PR+, HER2+), received from Simon Cancer Center Tissue Procurement Core, was manually fragmented with a scalpel into small pieces. Mouse skulls were isolated and rinsed with PBS. They were placed in a 24-well plate with the head top facing the well surface and tumor cells or breast cancer tissue fragments were grown. The well was filled with the control medium or osteocyte-derived CM. Fluphenazine (Sigma-Aldrich), a dopamine receptor antagonist that suppresses the growth of mammary tumor cells, was employed as a positive control to suppress tumor growth.

[3] = system: EO771 cells in the inside of the skull; assay: Skull diffusion assay, MTT-based viability; assay type: cell-based, mouse; settings: agent in the outside of the skull
Procedure: as §1

[4] = system: phosphorylated Akt in MSCs; assay: Western blot of phosphorylated Akt; assay type: cell-based, mouse
Procedure: (§2) Western blot analysis and protein array analysis. Western blot analysis was conducted using the procedure previously described. Antibodies against Lrp5, Runx2, Snail, TGFβ, sclerostin, Calr, p-eIF2α, eIF2α (Cell Signaling, Danvers, MA, USA), LIF, Trail (Novus Biologicals, Centennial, CO, USA), MMP9, NFATc1, cathepsin K (Santa Cruz Biotechnology, Dallas, TX, USA), p53, CXCL2, Ppib (Invitrogen, Carlsbad, CA, USA), Hsp90ab1 (Abcam, Cambridge, UK), and β-actin (Sigma, Saint Louis, MO, USA) were used. A proteome profiler mouse XL cytokine array kit (R&D Systems, Minneapolis, MN, USA) was also employed, and the expression of 111 cytokines and chemokines in MSC-derived CM was determined.

4T1.2 cells = assay: Western blot of proteins in treated tumor cells; assay type: cell-based, mouse; settings: for tumor-promoting genes (Lrp5, MMP9, Runx2, TGFβ, Snail) in 4T1.2 cells: Western blot
Procedure: as §2

[5] = system: 4T1.2 mammary tumor cells; assay: MTT viability assay; assay type: cell-based, mouse
From the text: (§3) In vitro assays. Cellular viability was examined using an MTT assay (Invitrogen, Carlsbad, CA, USA) with the procedure previously described, as well as an EdU assay with a fluorescence-based cell proliferation kit (Thermo-Fisher, Waltham, MA, USA). The recombinant proteins employed included Filamin A, Pkm, Pdia3, Tpm4, Anxa2, Eef1a1, Cts1, Nme2, Dcn, Calr, Aldoa, Calm1, Tpm3, Ppib, Myh9, Ywhae, Hspa5, Hsp90aa1 (MBS962910, MBS8249600, MBS2010131, MBS145304, MBS2009095, MBS2033168, MBS143355, MBS145412, MBS2557309, MBS2009125, MBS8248528, MBS2018713, MBS144696, MBS2009092, MBS717396, MBS143242, MBS806904, MBS142709; MyBioSource, San Diego, CA, USA), Actin Gamma 1, Actn4, Hspa8, Vimentin (H00000071-P01, H00000081-P01, NBP1-30278, NBP2-35139; Novus, Littleton, CO, USA), and Hsp90ab1 (OPCA05157; Aviva system biology, San Diego, CA, USA). A TRANSWELL® chamber assay was conducted to detect invasive cellular motility, and a wound-healing scratch assay was utilized to evaluate 2-dimensional migratory behavior. The overexpression of Akt, Lrp5, β-catenin, Snail, Calr, and Ppib was conducted by transfecting plasmids (#10841, #115907, #31785, #31697, #51161, #36123; Addgene, Cambridge, MA, USA). […]

[6] = system: 4T1.2 mammary tumor cells; assay: Scratch-based migration assay; assay type: cell-based, mouse
Procedure: Two-dimensional motility assay. A wound-healing scratch motility assay was performed to evaluate 2-dimensional cell motility. Approximately 4×10^5 cells were seeded in 12-well plates. After cell attachment, a plastic pipette tip was used to scratch a gap on the cell layer. Floating cells were removed, and CM was added. Images of the cell-free scratch zone were obtained via an inverted microscope at 0 h, and the areas newly occupied with cells were determined 24-48 h after scratching. The areas were quantified with IMAGE J (National Institutes of Health, Bethesda, MD, USA).
In vitro assays. Cellular viability was examined using an MTT assay (Invitrogen, Carlsbad, CA, USA) with the procedure previously described, as well as an EdU assay with a fluorescence-based cell proliferation kit (Thermo-Fisher, Waltham, MA, USA). […]

[7] = system: 4T1.2 mammary tumor cells; assay: TRANSWELL invasion assay; assay type: cell-based, mouse
From the text: as §3

[8] = system: 4T1.2 mammary tumor cells; assay: EdU proliferation assay; assay type: cell-based, mouse
Procedure: EdU assay. Approximately 2,000 cells were seeded in 96-well plates on day 1. CM was added on day 2 and cellular proliferation was examined using a fluorescence-based cell proliferation kit (CLICK-IT™ EDU ALEXA FLUOR™ 488 Imaging Kit; Thermo-Fisher, Waltham, MA, USA) on day 4. After fluorescent labeling, the number of fluorescently labeled cells was counted and the ratio to the total number of cells was determined.
as §3, with “USA).” for “USA). A TRANSWELL® chamber assay was conducted to detect invasive cellular motility, and a wound-healing scratch assay was utilized to evaluate 2-dimensional migratory behavior. The overexpression of Akt, Lrp5, β-catenin, Snail, Calr, and Ppib was conducted by transfecting plasmids (#10841, #115907, #31785, #31697, #51161, #36123; Addgene, Cambridge, MA, USA).”

EO771 cells = assay: Western blot of proteins in treated tumor cells; assay type: cell-based, mouse
Procedure: Western blot analysis and mass spectrometry. Western blot analysis was conducted using known procedures. Antibodies were used against ANXA1, β-catenin, caspase 3, Lrp5, Lrp6, Runx2, Sclerostin, Snail, TGFβ, NFATc1, cathepsin K (Cell Signaling, Danvers, MA, USA), DMP1, ANXA6, CXCL5 (Abcam, Cambridge, MA, USA), M-CSF, MMP9, OPN, TPM4 (Santa Cruz, Dallas, TX, USA), WISP1 (R&D systems, Minneapolis, MN, USA), β-actin (Sigma, Saint Louis, MO, USA), LIMA1, Trail (Novus, Centennial, CO, USA), p53 and CXCL1 (Invitrogen, Carlsbad, California, USA), and DSP (ProteinTech, Rosemont, IL, USA). The expression levels of Sclerostin and Lrp5 in CM were detected by ELISA (My BioSource, San Diego, CA, USA). Proteins from A5 osteocyte CM, Y4 osteocyte CM, and osteoclast control CM (RAW264.7 cells) were analyzed by the HF Hybrid Quadrupole Orbitrap mass spectrometry. Among 549 identified proteins, 49 proteins presented higher expression levels in A5 CM than Y4 CM and control CM. […]
Western blot analysis and protein array analysis. […] A proteome profiler mouse XL cytokine array kit (R&D Systems, Minneapolis, MN, USA) was also employed, and the expression of 111 cytokines and chemokines in MSC-derived CM was determined. […]

[9] = Estimation of the diffusion coefficient through the skull; assay type: physicochemical, mouse
From the text: Estimation of the diffusion coefficient through the skull. Suppose that the two aqueous reservoirs are separated by a skull and the solute (albumin) in the first reservoir with the volume V1 is transferred to the second reservoirs with the volume V2. When the volume of the skull is negligible, the change in the solute in the first reservoir is approximated, using the quasi-steady-state flux, N according to Eq. (1) and Eq. (2):
Where t=time, and c 1 (t) and c 2 (t)=concentrations in the first and second reservoirs, respectively, A=skull surface area, D=diffusion coefficient through the skull, and L=skull thickness. Since the decrease in the first reservoir is equivalent to the gain in the second reservoir, Eq. (3) is arrived at:
If the initial concentrations are c1(t=0)=c0 and c2 (t=0)=0, the concentration c1 is predicted as a function of time according to Eq. (4):
The diffusion coefficient of albumin in the skull was estimated as 3.30×10^−8 cm^2/s from the slope (0.7157) of the best-fit line of Eq. (4) in FIG. 36B. Of note, V1=265 μl, V2=65 μl, c0=10 μg/μ1, A=188 mm^2, and L=60 μm.

COc1cccc(-c2cc(NCc3ccc4c(c3)OCO4)nc(N)n2)c1 [BML284]
number of EO771 tumor cells in the lung [1]: Reduction

OCCN1CCN(CCCN2c3ccccc3Sc3ccc(C(F)(F)F)cc32)CC1 [Fluphenazine]
size of human breast cancer fragments in the inside of the skull [2]: significantly shrunk | viability of EO771 tumor cells in the inside of the skull [3]: significantly decreased

Oc1cc2c(cc1O)C(Cc1cccc3ccccc13)NCC2 (stereo not shown) [YS49]
phosphorylated Akt in MSCs [4]: elevated

Hsp90aa1: Hsp90aa1 recombinant protein
tumor-promoting genes (Lrp5, MMP9, Runx2, TGFβ, Snail) in 4T1.2 cells (4T1.2 cells): did not alter

Hsp90ab1: recombinant heat shock protein 90 alpha family class B member 1
tumor-promoting genes (Lrp5, MMP9, Runx2, TGFβ, Snail) in 4T1.2 cells (4T1.2 cells): downregulated | MTT-based viability of 4T1.2 cells [5]: Significant reduction | scratch-based migration of 4T1.2 cells [6]: reduced

Ppib: recombinant peptidylprolyl isomerase B
TRANSWELL invasion of 4T1.2 cells [7]: significantly inhibited | phosphorylation level of eIF2α in 4T1.2 cells (4T1.2 cells): elevated | tumor-promoting genes (Lrp5, MMP9, Runx2, TGFβ, Snail) in 4T1.2 cells (4T1.2 cells): suppressed | MTT-based viability of 4T1.2 cells [5]: Significant reduction | EdU-based proliferation of 4T1.2 cells [8]: significantly inhibited

TGFβ
tumor-promoting/tumorigenic proteins (Lrp5, MMP9, Runx2, TGFβ, Snail, IL1β etc.) in EO771 cells (EO771 cells): increased

albumin: bovine serum albumin, solute for skull diffusion
diffusion coefficient across the skull relative to aqueous solution, fold smaller [9]: approximately 20 fold | diffusion coefficient across the skull ([9]; murine skull, estimated from slope of Eq. (4)): 3.30×10^−8 cm^2/s
